The results in this text go back to US10682421B2, “Nanoparticle composition for use in targeting cancer stem cells and method for treatment of cancer” (City University of Hong Kong, priority 2015, dated 2020).

The structures appear in SMILES notation.

The test has as its system LCSCs. Put plainly: In vitro thermotherapy and chemotherapy under AMF or water bath, MTT assay. Type of test: cell-based, human. The settings on record: 37° C. under AMF for 30 min, 100 mg/mL for 1 h. As to the method: The AMF was generated by a 5 cm diameter 8-turn induction coil powered by a 3 kW alternating magnetic field generator. LCSCs were seeded in the 6-well plate at a density of 5×10^4 cells/mL. After 24 h incubation, cells were separately treated with 100 mg/mL CD20-Fe3O4@SiNPs, CD20-HSPI&Fe3O4@SiNPs, Fe3O4@SiNPs, HSPI&Fe3O4@SiNPs, SiNPs, and HSPI for 1 h. Cells without treatment were used as control. Following two washes with PBS, cells were placed inside the coil and heated to a defined temperature (between 37 and 50° C.) for 30 min. While frequency was kept constant at 350 kHz and temperature was monitored by using a thermometer immersed in a test tube containing 2 mL of solution. The traditional heating method (water bath heater) was used to compare with AMF heating. Cell survival was assessed by MTT assay.
In general terms: Tetrazolium assays rely on reduction of a dye to a coloured formazan, in cell work by metabolically active cells.

In the case of `CO[C@H]1/C=C\C=C(/C)C(=O)NC2=CC(=O)C(NCCN(C)C)=C(C[C@@H](C)C[C@H](OC)[C@H](O)[C@@H](C)/C=C(\C)[C@@H]1OC(N)=O)C2=O` [HSPI, 17-(Dimethylaminoethylamino)-17-demethoxygeldanamycin], the cell survival rate is 77%.
